Experimental data from patent US11033539B2, “Compounds of formulas (VII), (VIII), (IX), (XI), (XII), (XIII), and (XIV) as muscarinic receptor 4(M4) antagonists for treating neurological diseases” (Neurocrine Biosciences, Inc., priority 2015, dated 2021).

Columns and labels:
human M1 receptor = human M1 receptor (Homo sapiens (Human), UniProt P11229); assay: Radioligand (tritiated N-methylscopolamine) binding assay, M1; details: CHO cell membranes expressing human M1; 1.5 nM tritiated N-methylscopolamine; 90 min, 37° C.; read-out: Ki against M1 receptor (Table 21, M1)
human M1 receptor, sequence (P11229 whole entry): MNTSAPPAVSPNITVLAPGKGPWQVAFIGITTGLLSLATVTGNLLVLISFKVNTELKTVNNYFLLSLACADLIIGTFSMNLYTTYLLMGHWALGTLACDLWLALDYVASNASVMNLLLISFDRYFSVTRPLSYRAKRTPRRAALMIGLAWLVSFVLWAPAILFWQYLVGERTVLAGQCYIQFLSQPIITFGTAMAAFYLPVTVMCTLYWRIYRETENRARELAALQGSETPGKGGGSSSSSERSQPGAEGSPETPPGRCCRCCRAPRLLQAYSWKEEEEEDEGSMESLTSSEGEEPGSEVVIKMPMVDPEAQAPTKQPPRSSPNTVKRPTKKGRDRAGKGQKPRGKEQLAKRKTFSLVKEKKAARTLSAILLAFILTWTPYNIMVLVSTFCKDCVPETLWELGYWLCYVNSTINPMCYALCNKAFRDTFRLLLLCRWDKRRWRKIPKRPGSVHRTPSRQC
Summary of the method: (§1)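 Test compound (12 concentrations, 10 μM to […]), 1.5 nM radioligand and CHO receptor membranes were co-incubated at 37 °C for 90 minutes in 50 mM HEPES buffer with 100 mM NaCl, 5 mM MgCl2 and 1 mM EDTA, pH 7.4. Membranes were then harvested onto polyethylenimine-pretreated filters and radioactivity was counted to determine Ki.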

human M2 receptor = human M2 receptor (Homo sapiens (Human), UniProt P08172); assay: Radioligand (tritiated N-methylscopolamine) binding assay, M2; details: CHO cell membranes expressing human M2; 1.5 nM tritiated N-methylscopolamine; 90 min, 37° C.; read-out: Ki against M2 receptor (Table 21, M2)
human M2 receptor, sequence (P08172 whole entry): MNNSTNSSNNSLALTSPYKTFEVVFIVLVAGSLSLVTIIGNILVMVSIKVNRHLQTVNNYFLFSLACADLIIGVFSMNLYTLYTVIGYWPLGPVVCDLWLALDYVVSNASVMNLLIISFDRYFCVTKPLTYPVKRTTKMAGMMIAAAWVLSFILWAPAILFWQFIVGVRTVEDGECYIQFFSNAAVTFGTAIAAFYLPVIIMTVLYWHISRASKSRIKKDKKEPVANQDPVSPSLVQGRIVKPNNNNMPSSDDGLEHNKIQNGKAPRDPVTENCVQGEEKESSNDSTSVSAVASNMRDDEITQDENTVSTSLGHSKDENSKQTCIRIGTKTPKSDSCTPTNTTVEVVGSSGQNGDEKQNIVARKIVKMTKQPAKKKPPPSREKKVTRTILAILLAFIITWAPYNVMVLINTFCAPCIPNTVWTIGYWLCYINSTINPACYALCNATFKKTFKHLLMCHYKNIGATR
Summary of the method: as §1

human M3 receptor = human M3 receptor (Homo sapiens (Human), UniProt P20309); assay: Radioligand (tritiated N-methylscopolamine) binding assay, M3; details: CHO cell membranes expressing human M3; 1.5 nM tritiated N-methylscopolamine; 90 min, 37° C.; read-out: Ki against M3 receptor (Table 21, M3)
human M3 receptor, sequence (P20309 whole entry): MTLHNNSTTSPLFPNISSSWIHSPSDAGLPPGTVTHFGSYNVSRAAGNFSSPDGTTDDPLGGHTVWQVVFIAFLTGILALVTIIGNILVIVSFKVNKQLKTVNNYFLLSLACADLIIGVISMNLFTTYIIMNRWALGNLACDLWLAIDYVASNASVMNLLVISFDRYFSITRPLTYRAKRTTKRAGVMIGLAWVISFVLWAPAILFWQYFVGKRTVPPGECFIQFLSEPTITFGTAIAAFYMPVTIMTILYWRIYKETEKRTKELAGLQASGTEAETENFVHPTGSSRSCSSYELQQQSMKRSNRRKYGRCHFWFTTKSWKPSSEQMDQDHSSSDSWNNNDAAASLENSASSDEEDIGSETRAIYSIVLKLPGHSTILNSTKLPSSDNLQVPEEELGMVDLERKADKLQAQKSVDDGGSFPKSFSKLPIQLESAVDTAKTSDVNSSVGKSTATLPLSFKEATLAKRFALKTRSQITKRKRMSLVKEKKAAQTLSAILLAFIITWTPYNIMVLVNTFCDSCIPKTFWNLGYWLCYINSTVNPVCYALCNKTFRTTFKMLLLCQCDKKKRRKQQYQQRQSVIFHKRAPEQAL
Summary of the method: as §1

human M4 receptor = human M4 receptor (Homo sapiens (Human), UniProt P08173); assay: Radioligand (tritiated N-methylscopolamine) binding assay, M4; details: Ki against the M4 receptor; membranes from CHO cells expressing human M4; tritiated N-methylscopolamine 1.5 nM; read-out: Ki
human M4 receptor, sequence (P08173 whole entry): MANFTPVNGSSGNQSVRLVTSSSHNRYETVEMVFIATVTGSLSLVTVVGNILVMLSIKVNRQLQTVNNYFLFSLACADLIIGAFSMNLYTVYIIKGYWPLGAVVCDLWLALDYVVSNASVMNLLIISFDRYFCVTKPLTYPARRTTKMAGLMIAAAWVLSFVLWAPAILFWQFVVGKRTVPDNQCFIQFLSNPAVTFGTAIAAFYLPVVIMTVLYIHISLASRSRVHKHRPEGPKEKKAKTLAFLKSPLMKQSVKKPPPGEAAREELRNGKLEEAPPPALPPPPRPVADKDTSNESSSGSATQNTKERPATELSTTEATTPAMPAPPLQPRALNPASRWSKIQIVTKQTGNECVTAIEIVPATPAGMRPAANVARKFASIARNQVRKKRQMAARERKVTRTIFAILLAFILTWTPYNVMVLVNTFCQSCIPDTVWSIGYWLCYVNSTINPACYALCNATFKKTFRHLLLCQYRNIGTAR
Summary of the method: as §1

human M5 receptor = human M5 receptor (Homo sapiens (Human), UniProt P08912); assay: Radioligand (tritiated N-methylscopolamine) binding assay, M5; details: CHO cell membranes expressing human M5; 1.5 nM tritiated N-methylscopolamine; 90 min, 37° C.; read-out: Ki against M5 receptor (Table 21, M5)
human M5 receptor, sequence (P08912 whole entry): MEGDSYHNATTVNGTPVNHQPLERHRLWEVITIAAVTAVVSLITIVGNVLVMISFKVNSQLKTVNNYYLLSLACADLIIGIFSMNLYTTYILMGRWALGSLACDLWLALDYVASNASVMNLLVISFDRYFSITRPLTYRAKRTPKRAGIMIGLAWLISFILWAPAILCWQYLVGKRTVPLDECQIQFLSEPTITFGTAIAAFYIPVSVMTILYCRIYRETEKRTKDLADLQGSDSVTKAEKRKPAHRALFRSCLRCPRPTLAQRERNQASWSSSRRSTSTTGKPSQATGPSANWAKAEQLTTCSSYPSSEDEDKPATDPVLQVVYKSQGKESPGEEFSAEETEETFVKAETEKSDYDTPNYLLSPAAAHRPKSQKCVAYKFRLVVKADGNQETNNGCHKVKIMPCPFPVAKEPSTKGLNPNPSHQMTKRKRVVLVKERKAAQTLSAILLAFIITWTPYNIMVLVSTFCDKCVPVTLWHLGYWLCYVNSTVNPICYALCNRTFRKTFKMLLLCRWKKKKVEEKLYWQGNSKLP
Summary of the method: as §1

Ki (human M1 receptor)	Ki (human M2 receptor)	Ki (human M3 receptor)	Ki (human M4 receptor)	Ki (human M5 receptor)	SMILES
100 to 1000 nM	100 to 1000 nM	100 to 1000 nM	< 10 nM	> 1000 nM	C[C@@H]1CN(c2ccc(OC(F)(F)F)c(C#N)c2)CCN1C(=O)NCC[C@H]1CCN(Cc2ccccc2)C1 [9-10, (2R)-N-{2-[(3S)-1-benzylpyrrolidin-3-yl]ethyl}-4-[3-cyano-4-(trifluoromethoxy)phenyl]-2-methylpiperazine-1-carboxamide]
100 to 1000 nM	10 to 100 nM	100 to 1000 nM	< 10 nM	> 1000 nM	C[C@@H]1CN(c2cnc(C(F)(F)F)nc2)C[C@H](C)N1C(=O)NCCC1CCN(Cc2ccc3[nH]ccc3c2)CC1 [6-50, (2R,6S)-N-{2-[1-(1H-indol-5-ylmethyl)piperidin-4-yl]ethyl}-2,6-dimethyl-4-[2-(trifluoromethyl)pyrimidin-5-yl]piperazine-1-carboxamide]
> 1000 nM	100 to 1000 nM	> 1000 nM	< 10 nM	> 1000 nM	C[C@@H]1CN(c2cnc(C(F)(F)F)cn2)C[C@@H](C)N1C(=O)NCCC1CCN(Cc2ccccc2)CC1 [26-4, (2R,6R)-N-[2-(1-benzylpiperidin-4-yl)ethyl]-2,6-dimethyl-4-[5-(trifluoromethyl)pyrazin-2-yl]piperazine-1-carboxamide]
100 to 1000 nM	10 to 100 nM	100 to 1000 nM	< 10 nM	100 to 1000 nM	C[C@@H]1CN(c2cc(F)c(F)c(Cl)c2)C[C@H](C)N1C(=O)NCCC1CCN(Cc2ccccc2)CC1 [22-7]
100 to 1000 nM	100 to 1000 nM	> 1000 nM	< 10 nM	> 1000 nM	CC1CN(c2ccc(OC(F)(F)F)cc2)CCC1C(=O)NCCC1CCN(Cc2ccccc2)CC1 (centres unmarked) [10-6, N-[2-(1-benzylpiperidin-4-yl)ethyl]-3-methyl-1-[4-(trifluoromethoxy)phenyl]piperidine-4-carboxamide]
> 1000 nM	100 to 1000 nM	> 1000 nM	< 10 nM	> 1000 nM	O=C(NCCC1CCN(Cc2ccccc2)CC1)C1CCN(c2cc(F)c(F)c(F)c2)CC1 [10-7, N-[2-(1-benzylpiperidin-4-yl)ethyl]-1-(3,4,5-trifluorophenyl)piperidine-4-carboxamide]
100 to 1000 nM	100 to 1000 nM	> 1000 nM	< 10 nM	> 1000 nM	Cc1c(C(=O)NCCC2(O)CCN(Cc3ccccc3)CC2)cnc2cc(-c3cccc(C(F)(F)F)c3)nn12 [17-3, N-[2-(1-benzyl-4-hydroxypiperidin-4-yl)ethyl]-7-methyl-2-[3-(trifluoromethyl)phenyl]pyrazolo[1,5-a]pyrimidine-6-carboxamide]
100 to 1000 nM	10 to 100 nM	> 1000 nM	< 10 nM	> 1000 nM	N#Cc1cc(N2CCC(C(=O)NCCC3CCN(Cc4ccccc4)CC3)CC2)ccc1OC(F)(F)F [10-57, N-[2-(1-benzylpiperidin-4-yl)ethyl]-1-[3-cyano-4-(trifluoromethoxy)phenyl]piperidine-4-carboxamide]
100 to 1000 nM	100 to 1000 nM	> 1000 nM	< 10 nM	> 1000 nM	C[C@@H]1CN(c2cc(F)c(F)c(F)c2)CCN1C(=O)NCCC1CCN(Cc2ccc(F)cc2)CC1 [6-4, (2R)-N-(2-{1-[(4-fluorophenyl)methyl]piperidin-4-yl}ethyl)-2-methyl-4-(3,4,5-trifluorophenyl)piperazine-1-carboxamide]
100 to 1000 nM	100 to 1000 nM	100 to 1000 nM	< 10 nM	> 1000 nM	COc1nc(N2C[C@@H](C)N(C(=O)NCCC3CCN(Cc4ccccc4)CC3)[C@@H](C)C2)ncc1C#N [5-17, (2R,6S)-N-[2-(1-benzylpiperidin-4-yl)ethyl]-4-(5-cyano-4-methoxypyrimidin-2-yl)-2,6-dimethylpiperazine-1-carboxamide]
10 to 100 nM	10 to 100 nM	100 to 1000 nM	< 10 nM	100 to 1000 nM	C[C@@H]1CN(c2cnc(C(F)(F)F)nc2)C[C@@H](C)N1C(=O)NCCC1CCN(Cc2ccccc2)CC1 [26-6]
100 to 1000 nM	100 to 1000 nM	> 1000 nM	< 10 nM	> 1000 nM	C[C@@H]1CN(c2cccc(C#N)c2)CCN1C(=O)NCCC1CCN(Cc2ccccc2)CC1 [4-68, (2R)-N-[2-(1-benzylpiperidin-4-yl)ethyl]-4-(3-cyanophenyl)-2-methylpiperazine-1-carboxamide]
> 1000 nM	10 to 100 nM	> 1000 nM	< 10 nM	100 to 1000 nM	C[C@@H]1CN(c2cc(F)c(C#N)c(F)c2)CCN1C(=O)NCCC1CCN(Cc2ccccc2)CC1 [22-12]
100 to 1000 nM	10 to 100 nM	> 1000 nM	< 10 nM	> 1000 nM	C[C@@H]1CN(c2ccc(OC(F)(F)F)c(C#N)c2)CCN1C(=O)NCCC1CCN(Cc2ccccc2)CC1 [3-1, (2R)-N-[2-(1-benzylpiperidin-4-yl)ethyl]-4-[3-cyano-4-(trifluoromethoxy)phenyl]-2-methylpiperazine-1-carboxamide]
> 1000 nM	100 to 1000 nM	> 1000 nM	< 10 nM	> 1000 nM	O=C(NCCC1CCN(Cc2ccccc2)CC1)C1CCN(c2ccc(OC(F)(F)F)cc2)CC1 [9-1, N-[2-(1-benzylpiperidin-4-yl)ethyl]-1-[4-(trifluoromethoxy)phenyl]piperidine-4-carboxamide]
10 to 100 nM	< 10 nM	10 to 100 nM	< 10 nM	100 to 1000 nM	O=C(NCCC1CCN(Cc2ccccc2)CC1)C1CCN(c2ncc(C(F)(F)F)cc2Cl)CC1 [9-63, N-[2-(1-benzylpiperidin-4-yl)ethyl]-1-[3-chloro-5(trifluoromethyl)pyridin-2-yl]piperidine-4-carboxamide]
100 to 1000 nM	10 to 100 nM	> 1000 nM	< 10 nM	100 to 1000 nM	C[C@H]1CN(c2ccc(C#N)cn2)CCC1C(=O)NCCC1CCN(Cc2ccccc2)CC1 (stereo partly drawn) [10-79, (3R)-N-[2-(1-benzylpiperidin-4-yl)ethyl]-1-(5-cyanopyridin-2-yl)-3-methylpiperidine-4-carboxamide]
> 1000 nM	100 to 1000 nM	> 1000 nM	< 10 nM	> 1000 nM	O=C(NCCC1CCN(Cc2ccccc2)CC1)C1CCN(c2ccc(C(F)(F)F)cc2)CC1 [10-9, N-[2-(1-benzylpiperidin-4-yl)ethyl]-1-[4-(trifluoromethyl)phenyl]piperidine-4-carboxamide]
> 1000 nM	> 1000 nM	> 1000 nM	< 10 nM	> 1000 nM	C[C@@H]1CN(c2ccc(F)c(C#N)c2)CCN1C(=O)NCCC1(O)CCN(Cc2ccccc2)CC1 [7-11, (2R)-N-[2-(1-benzyl-4-hydroxypiperidin-4-yl)ethyl]-4-(3-cyano-4-fluorophenyl)-2-methylpiperazine-1-carboxamide]
> 1000 nM	> 1000 nM	> 1000 nM	< 10 nM	> 1000 nM	C[C@@H]1CN(c2ccc(F)c(C#N)c2)CCN1C(=O)NC[C@@H](O)C1CCN(Cc2ccccc2)CC1 [3-18, (2R)-N-[(2S)-2-(1-benzylpiperidin-4-yl)-2-hydroxyethyl]-4-(3-cyano-4-fluorophenyl)-2-methylpiperazine-1-carboxamide]
> 1000 nM	100 to 1000 nM	> 1000 nM	< 10 nM	> 1000 nM	Cc1c(C(=O)NCCC2CCN(Cc3ccccc3)CC2)cnc2cc(-c3cccc(C(F)(F)F)c3)nn12 [17-1, N-[2-(1-benzylpiperidin-4-yl)ethyl]-7-methyl-2-[3-(trifluoromethyl)phenyl]pyrazolo[1,5-a]pyrimidine-6-carboxamide]
100 to 1000 nM	100 to 1000 nM	> 1000 nM	< 10 nM	> 1000 nM	O=C(NCCC1CCN(Cc2ccccc2)CC1)C1CCN(c2cccc(OC(F)(F)F)c2)CC1 [10-19, N-[2-(1-benzylpiperidin-4-yl)ethyl]-1-[3-(trifluoromethoxy)phenyl]piperidine-4-carboxamide]
> 1000 nM	100 to 1000 nM	> 1000 nM	< 10 nM	> 1000 nM	O=C(NCCC1CCN(Cc2ccccc2)CC1CO)N1CCN(c2cc(F)c(F)c(F)c2)CC1 (centres unmarked) [3-19, N-{2-[1-benzyl-3-(hydroxymethyl)piperidin-4-yl]ethyl}-4-(3,4,5-trifluorophenyl)piperazine-1-carboxamide]
100 to 1000 nM	10 to 100 nM	100 to 1000 nM	< 10 nM	> 1000 nM	C[C@H]1CN(c2ccc(OC(F)(F)F)c(C#N)c2)CCN1C(=O)NCCC1CCN(Cc2ccccc2)CC1 [4-21, (2S)-N-[2-(1-benzylpiperidin-4-yl)ethyl]-4-[3-cyano-4-(trifluoromethoxy)phenyl]-2-methylpiperazine-1-carboxamide]

SMILES	Ki (human M1 receptor)	Ki (human M2 receptor)	Ki (human M3 receptor)	Ki (human M4 receptor)	Ki (human M5 receptor)
N#Cc1cnc(N2CC3CCC(C2)N3C(=O)NCCC2CCN(Cc3ccccc3)CC2)nc1 [8-48, N-[2-(1-benzylpiperidin-4-yl)ethyl]-3-(5-cyanopyrimidin-2-yl)-3,8-diazabicyclo[3.2.1]octane-8-carboxamide]	10 to 100 nM	< 10 nM	100 to 1000 nM	< 10 nM	100 to 1000 nM
